Laboratory results as given in patent publication US7612107B2, “Treatment and inhibition of disease conditions using flexible heteroarotinoids” (The Board of Regents of the University of Oklahoma, priority 2005, dated 2009).

System: ovarian cancer cells
Assay: Microarray analysis of gene expression in SHetA2-treated ovarian cancer cells
Format: cell-based, Homo sapiens
Experimental: Microarray analysis was conducted to determine specific disease causing genes which were expressed at higher (>1 fold) or lower (<1 fold) levels than normal in ovarian cancer cells treated with SHetA2 (see Table 6).

[1] = Genbank AI358954, Neuromuscular Diseases

**Q.** With `CC1(C)CC(C)(C)c2cc(NC(=S)Nc3ccc([N+](=O)[O-])cc3)ccc2S1` [SHetA2] as the compound, how does the “Fold: Putative c-Myc-responsive (RCL)” value (Genbank AA523444, Cancer) read?
**A.** 0.41 Fold

**Q.** What about the “Fold: Myeloidlymphoid or mixed-lineage leukemia (trithorax (Drosophila) homolog); translocated to, 4 (HGC6.3)” value (Genbank AB016902.2, Cancer) of the same compound?
**A.** 5.07 Fold

**Q.** What about the “Fold: Vascular endothelial growth factor (VEGF)” value (Genbank AF022375.1) of the same compound?
**A.** 0.47 Fold

**Q.** What about the “Fold: METH1 protein (METH1), contain a repeated amino acid motif homologous to the anti-angiogenic type 1 repeats of thromospondin-1 (TSP1)” value (Genbank AF060152.1) of the same compound?
**A.** 0.39 Fold

**Q.** What about the “Fold: EHT protein” value (Genbank AF068266.1, Cancer) of the same compound?
**A.** 2.80 Fold

**Q.** And the “Fold: Familial Mediterranean fever locus region” value (Genbank AF098968.1, Autoimmune Diseases)?
**A.** 0.30 Fold

**Q.** What about the “Fold: Myeloidlymphoid leukemia 2 (MLL2)” value (Genbank AF105279.1, Cancer) of the same compound?
**A.** 0.31 Fold

**Q.** And the “Fold: Glypican-6 (GPC6)” value (Genbank AF111178.1)?
**A.** 2.07 Fold

**Q.** What about the “Fold: Hemochromatosis splice variant 495-2314del, Iron Storage Disorder” value (Genbank AF144243.1, Storage and Metabolism Deficiencies) of the same compound?
**A.** 3.01 Fold

**Q.** And the “Fold: BAGE2 antigen (BAGE2)” value (Genbank AF218570.1, Cancer)?
**A.** 0.34 Fold

**Q.** What about the “Fold: Prothymosin alpha (PTMA)” value (Genbank AF257099, Polycystic Kidney Disease) of the same compound?
**A.** 2.60 Fold

**Q.** And the “Fold: Deleted in lymphocytic leukemia, 2/DEF = Homo sapiens BCMS-upstream neighbor (BCMSUN)” value (Genbank AF264787.1, Cancer)?
**A.** 0.33 Fold

**Q.** And the “Fold: Deleted in lymphocytic leukemia, BCMS-upstream neighbor (BCMSUN) (DLEU2)” value (Genbank AF264787.1, Cancer)?
**A.** 0.40 Fold

**Q.** What about the “Fold: PNAS-128 in leukemia” value (Genbank AF277186.1, Cancer) of the same compound?
**A.** 0.36 Fold

**Q.** What about the “Fold: BAM in multiple myeloma” value (Genbank AF455755.1, Cancer) of the same compound?
**A.** 3.05 Fold

**Q.** And the “Fold: Cervical cancer suppressor gene-4 protein (HCCS-4)” value (Genbank AF465843.1, Cancer)?
**A.** 2.06 Fold

**Q.** What about the “Fold: FLJ23538 fis, highly similar to BETA2 Human MEN1(Multiple Endocrine Neoplasia) region clone epsilonbeta (BETA2)” value (Genbank AI042152, Cancer) of the same compound?
**A.** 0.31 Fold

**Q.** What about the “Fold: ESTs, Moderately similar to S72399 ras-homolog GTPase rab28 isoform S” value (Genbank AI080106, Cancer) of the same compound?
**A.** 7.75 Fold

**Q.** What about the “Fold: Prostate cancer associated protein 5 (PCANAP5)” value (Genbank AI299378, Cancer) of the same compound?
**A.** 0.23 Fold

**Q.** And the “Fold: ESTs, Weakly similar to DRPL_Human Atrophin-1 (DRPL) in Huntington's disease (HD) and dentatorubral and pallidoluysian atrophy (DRPLA) dentatorubral-pallidoluysian atrophy” value [1]?
**A.** 2.52 Fold

**Q.** What about the “Fold: ESTs, Weakly similar to DRPL_Human Atrophin-1 (DRPL) in dentatorubral-pallidoluysian atrophy” value [1] of the same compound?
**A.** 2.52 Fold

**Q.** And the “Fold: B-cell CLLlymphoma 3 (BCL3)” value (Genbank AI829875, Cancer)?
**A.** 2.58 Fold

**Q.** And the “Fold: Lipoma cell line Li-538SV40 ectopic sequence from HMGI-C fusion mRNA, 3 sequence (LI)” value (Genbank AI990940, Cancer)?
**A.** 0.47 Fold

**Q.** And the “Fold: Butyrophilin, subfamily 3, member A2 (BTN3A2) milk protein” value (Genbank AI991252, Autoimmune Diseases)?
**A.** 2.31 Fold

**Q.** And the “Fold: Disintegrin-like and metalloprotease (reprolysin type) with thrombospondin type 1 motif, highly similar to Homo sapiens metalloproteinase with thrombospondin type 1 motifs (ADAMTS1)” value (Genbank AK023795.1)?
**A.** 0.43 Fold

**Q.** And the “Fold: 3-hydroxyisobutyrate dehydrogenase, mitochondrial precursor” value (Genbank AK025558)?
**A.** 0.00 Fold

**Q.** What about the “Fold: NICE-5 protein” value (Genbank AW779859, Cancer) of the same compound?
**A.** 0.48 Fold

**Q.** What about the “Fold: ASPLTFE3 type 2 fusion protein, ASPLTFE3 type 1 fusion protein mRNA in Sarcoma” value (Genbank AY034077.1, Cancer) of the same compound?
**A.** 0.46 Fold

**Q.** What about the “Fold: RASSF3 isoform A, putative tumor suppressor” value (Genbank AY062002.1, Cancer) of the same compound?
**A.** 2.88 Fold

**Q.** What about the “Fold: A kinase (PRKA) anchor protein 1, clone MGC: 1807” value (Genbank BC000729.1) of the same compound?
**A.** 2.00 Fold

**Q.** And the “Fold: IMAGE: 3050107 mRNA, TBC1 domain family” value (Genbank BC001525, Cancer)?
**A.** 0.67 Fold

**Q.** What about the “Fold: v-Myc avian myelocytomatosis viral related oncogene, neuroblastoma derived (MYCN)” value (Genbank BC002712.1, Cancer) of the same compound?
**A.** 3.99 Fold

**Q.** And the “Fold: aarF domain containing kinase 4” value (Genbank BC013114)?
**A.** 2.30 Fold

**Q.** What about the “Fold: Similar to vitelliform macular dystrophy (Best disease, bestrophin)” value (Genbank BC041664.1, Eye Diseases) of the same compound?
**A.** 0.26 Fold

**Q.** What about the “Fold: Thrombospondin 1 (THBS1)” value (Genbank BE999967) of the same compound?
**A.** 0.42 Fold

**Q.** What about the “Fold: SNRPN upstream reading frame (SNURF) in Prader-Willi and Angelman syndrome” value (Genbank BF114870, Neuromuscular Diseases) of the same compound?
**A.** 0.39 Fold

**Q.** And the “Fold: Novel MAFF (v-maf musculoaponeurotic fibrosarcoma (avian) oncogene family, protein F) LIKE protein” value (Genbank Cluster Incl. AL021977, Cancer)?
**A.** 0.47 Fold

**Q.** What about the “Fold: Butyrophilin (BTF3) - Milk Fat” value (Genbank Cluster Incl. U90548, Autoimmune Diseases) of the same compound?
**A.** 2.15 Fold

**Q.** And the “Fold: Facioscapulohumeral muscular dystrophy (FSHD) gene region, D4Z4 tandem repeat unit” value (Genbank D38024, Skeletal Diseases)?
**A.** 2.43 Fold

**Q.** And the “Fold: FYN oncogene related to SRC, FGR and YES, c-syn protooncogene” value (Genbank M14333.1, Cancer)?
**A.** 0.44 Fold

**Q.** What about the “Fold: Nephropontin inhibits urine crystals - kidney stones” value (Genbank M83248.1, Storage and Metabolism Deficiencies) of the same compound?
**A.** 2.34 Fold

**Q.** What about the “Fold: FYN oncogene related to SRC, FGR and YES (FYN)” value (Genbank N20923, Cancer) of the same compound?
**A.** 0.13 Fold

**Q.** What about the “Fold: Sarcoglycan, gamma (35 kD dystrophin-associated glycoprotein) (Muscular Dystrophy)” value (Genbank NM_000231.1, Skeletal Diseases) of the same compound?
**A.** 0.04 Fold
